Activity calls are given as the source filed them. The calls are words filed in the database; no cut-off is given here.
Columns and labels:
Bacillus cereus [1] = experiment: Antibacterial activity against Bacillus cereus RSKK 863 at 30 ug/disk after 24 hr by agar well diffusion method; assay type: functional; details: for zone of inhibition at 30 µg/disc: RSKK 863, 24 h, read-out: IZ
Pseudomonas aeruginosa [2] = experiment: Antibacterial activity against Pseudomonas aeruginosa […] at 30 ug/disk after 24 hr by agar well diffusion method; assay type: functional
Escherichia coli [3] = experiment: Antibacterial activity against Escherichia coli ATCC 35218 at 30 ug/disk after 24 hr by agar well diffusion method; assay type: functional, organism-based
Pseudomonas aeruginosa [4] = experiment: Antibacterial activity against Pseudomonas aeruginosa […] at 1 mg/ml after 24 hr by agar well diffusion method; assay type: functional; details: for zone of inhibition at 1000 µg/mL: read-out: IZ
Escherichia coli [5] = experiment: Antibacterial activity against Escherichia coli ATCC 35218 at 1 mg/ml after 24 hr by agar well diffusion method; assay type: functional; details: for zone of inhibition at 1000 µg/mL: ATCC 35218, 24 h, read-out: IZ
Staphylococcus aureus = experiment: Antibacterial activity against Staphylococcus aureus TP32 clinical isolate at 1 mg/ml after 24 hr by agar well diffusion method; assay type: functional; details: for zone of inhibition at 1000 µg/mL: TP32, 24 h, read-out: IZ
Bacillus cereus [6] = experiment: Antibacterial activity against Bacillus cereus RSKK 863 at 1 mg/ml after 24 hr by agar well diffusion method; assay type: functional; details: for zone of inhibition at 1000 µg/mL: RSKK 863, 24 h, read-out: IZ
Pseudomonas aeruginosa [7] = experiment: Antibacterial activity against Pseudomonas aeruginosa […] at 10 units/disk after 24 hr by agar well diffusion method; assay type: functional, organism-based
Escherichia coli [8] = experiment: Antibacterial activity against Escherichia coli ATCC 35218 at 10 units/disk after 24 hr by agar well diffusion method; assay type: functional
Bacillus cereus [9] = experiment: Antibacterial activity against Bacillus cereus RSKK 863 at 10 units/disk after 24 hr by agar well diffusion method; assay type: functional, organism-based
Bacillus cereus [10] = experiment: Antibacterial activity against Bacillus cereus RSKK 863 at 15 ug/disk after 24 hr by agar well diffusion method; assay type: functional; details: RSKK 863, 24 h, read-out: IZ
Escherichia coli [11] = experiment: Antibacterial activity against Escherichia coli ATCC 35218 at 15 ug/disk after 24 hr by agar well diffusion method; assay type: functional; details: ATCC 35218, 24 h, read-out: IZ
Pseudomonas aeruginosa [12] = experiment: Antibacterial activity against Pseudomonas aeruginosa […] at 15 ug/disk after 24 hr by agar well diffusion method; assay type: functional, organism-based
Pseudomonas aeruginosa [13] = experiment: Antibacterial activity against Pseudomonas aeruginosa […] at 10 ug/disk after 24 hr by agar well diffusion method; assay type: functional, organism-based
Escherichia coli [14] = experiment: Antibacterial activity against Escherichia coli ATCC 35218 at 10 ug/disk after 24 hr by agar well diffusion method; assay type: functional; details: ATCC 35218, 24 h, read-out: IZ
Bacillus cereus [15] = experiment: Antibacterial activity against Bacillus cereus RSKK 863 at 10 ug/disk after 24 hr by agar well diffusion method; assay type: functional; details: RSKK 863, 24 h, read-out: IZ

Row | Structure (SMILES) | zone of inhibition at 1000 µg/mL (Pseudomonas aeruginosa [4]) [mm] | zone of inhibition at 1000 µg/mL (Escherichia coli [5]) [mm] | zone of inhibition at 1000 µg/mL (Staphylococcus aureus) [mm] | zone of inhibition at 1000 µg/mL (Bacillus cereus [6]) [mm] | other results
1 | CN[C@H](CC(C)C)C(=O)N[C@H]1C(=O)N[C@@H](CC(N)=O)C(=O)N[C@H]2C(=O)N[C@H]3C(=O)N[C@H](C(=O)N[C@H](C(=O)O)c4cc(O)cc(O)c4-c4cc3ccc4O)[C@H](O)c3ccc(c(Cl)c3)Oc3cc2cc(c3O[C@@H]2O[C@H](CO)[C@@H](O)[C@H](O)[C@H]2O[C@H]2C[C@](C)(N)[C@H](O)[C@H](C)O2)Oc2ccc(cc2Cl)[C@H]1O [VANCOMYCIN] | – | – | – | – | zone of inhibition at 30 µg/disc (Bacillus cereus [1]): 17 mm; inhibition zone (IZ) (Pseudomonas aeruginosa [2]): inactive; inhibition zone (IZ) (Escherichia coli [3]): inactive
2 | N#C/C(=N\Nc1ccc(Br)cc1)c1nnn[nH]1 | 8 | 14 | 6 | 20 | –
3 | N#C/C(=N\Nc1ccccc1[N+](=O)[O-])c1nnn[nH]1 | 4 | 7 | 4 | 10 | –
4 | N#C/C(=N\Nc1ccc([N+](=O)[O-])cc1)c1nnn[nH]1 | 5 | 10 | 3 | 11 | –
5 | COc1ccccc1N/N=C(\C#N)c1nnn[nH]1 | – | – | – | – | inhibition zone (IZ) (Pseudomonas aeruginosa [4]): inactive; inhibition zone (IZ) (Escherichia coli [5]): inactive; inhibition zone (IZ) (Staphylococcus aureus): inactive; inhibition zone (IZ) (Bacillus cereus [6]): inactive
6 | N#C/C(=N\Nc1ccccc1Br)c1nnn[nH]1 | 3 | 7 | – | 12 | inhibition zone (IZ) (Staphylococcus aureus): inactive
7 | N#C/C(=N\Nc1ccccc1)c1nnn[nH]1 | 9 | 7 | 8 | 15 | –
8 | N#C/C(=N\Nc1ccccc1Cl)c1nnn[nH]1 | 10 | – | 7 | 5 | inhibition zone (IZ) (Escherichia coli [5]): inactive
9 | N#C/C(=N\Nc1ccc(I)cc1)c1nnn[nH]1 | 9 | 7 | 8 | 10 | –
10 | N#C/C(=N\Nc1ccccc1I)c1nnn[nH]1 | 5 | 7 | 3 | 17 | –
11 | CC1(C)S[C@@H]2[C@H](NC(=O)Cc3ccccc3)C(=O)N2[C@H]1C(=O)O [PENICILLIN G] | – | – | – | – | inhibition zone (IZ) (Pseudomonas aeruginosa [7]): inactive; inhibition zone (IZ) (Escherichia coli [8]): 17 mm; inhibition zone (IZ) (Bacillus cereus [9]): inactive
12 | CC[C@H]1OC(=O)[C@H](C)[C@@H](O[C@H]2C[C@@](C)(OC)[C@@H](O)[C@H](C)O2)[C@H](C)[C@@H](O[C@@H]2O[C@H](C)C[C@H](N(C)C)[C@H]2O)[C@](C)(O)C[C@@H](C)C(=O)[C@H](C)[C@@H](O)[C@]1(C)O [ERYTHROMYCIN] | – | – | – | – | zone of inhibition at 15 µg/disc (Bacillus cereus [10]): 19 mm; zone of inhibition at 15 µg/disc (Escherichia coli [11]): 11 mm; inhibition zone (IZ) (Pseudomonas aeruginosa [12]): inactive
13 | COc1ccc(N/N=C(\C#N)c2nnn[nH]2)cc1 | – | 10 | – | 7 | inhibition zone (IZ) (Pseudomonas aeruginosa [4]): inactive; inhibition zone (IZ) (Staphylococcus aureus): inactive
14 | CN(C)[C@@H]1C(O)=C(C(N)=O)C(=O)[C@@]2(O)C(O)=C3C(=O)c4c(O)cccc4[C@@](C)(O)[C@H]3C[C@@H]12 [TETRACYCLINE] | – | – | – | – | zone of inhibition at 30 µg/disc (Bacillus cereus [1]): 17 mm; zone of inhibition at 30 µg/disc (Pseudomonas aeruginosa [2]; read-out: IZ): 16 mm; inhibition zone (IZ) (Escherichia coli [3]): inactive
15 | Cc1ccc(N/N=C(\C#N)c2nnn[nH]2)cc1 | 8 | 10 | 8 | 20 | –
16 | N#C/C(=N\Nc1ccc(Cl)cc1)c1nnn[nH]1 | 8 | 10 | 6 | 21 | –
17 | OC(Cn1cncn1)(Cn1cncn1)c1ccc(F)cc1F | – | – | – | – | inhibition zone (IZ) (Bacillus cereus [1]): inactive; inhibition zone (IZ) (Pseudomonas aeruginosa [2]): inactive; inhibition zone (IZ) (Escherichia coli [3]): inactive
18 | N#C/C(=N\Nc1ccc(F)cc1)c1nnn[nH]1 | 8 | 11 | 10 | 19 | –
19 | CC1(C)S[C@@H]2[C@H](NC(=O)[C@H](N)c3ccccc3)C(=O)N2[C@H]1C(=O)O [AMPICILLIN] | – | – | – | – | inhibition zone (IZ) (Pseudomonas aeruginosa [13]): inactive; zone of inhibition at 10 µg/disc (Escherichia coli [14]): 9 mm; zone of inhibition at 10 µg/disc (Bacillus cereus [15]): 20 mm
20 | N#C/C(=N\Nc1ccccc1F)c1nnn[nH]1 | 4 | 14 | 5 | 19 | –
21 | Cc1ccccc1N/N=C(\C#N)c1nnn[nH]1 | 5 | 10 | 4 | 20 | –
